Test results published in patent US8912214B2, “Use of Chk2 kinase inhibitors for cancer treatment” (The United States of America, as Represented by the …, priority 2005, dated 2014).
Read-outs that look alike come from different tables or passages of the source.

Tests used:
Format in all cases: biochemical
Chk1 [1] = target: T1, Chk1 (Homo sapiens, UniProt O14757); assay: In vitro Chk1 kinase assay (γ32P-ATP, SDS-PAGE); details: FIG. 6
T1 sequence (O14757 1-476): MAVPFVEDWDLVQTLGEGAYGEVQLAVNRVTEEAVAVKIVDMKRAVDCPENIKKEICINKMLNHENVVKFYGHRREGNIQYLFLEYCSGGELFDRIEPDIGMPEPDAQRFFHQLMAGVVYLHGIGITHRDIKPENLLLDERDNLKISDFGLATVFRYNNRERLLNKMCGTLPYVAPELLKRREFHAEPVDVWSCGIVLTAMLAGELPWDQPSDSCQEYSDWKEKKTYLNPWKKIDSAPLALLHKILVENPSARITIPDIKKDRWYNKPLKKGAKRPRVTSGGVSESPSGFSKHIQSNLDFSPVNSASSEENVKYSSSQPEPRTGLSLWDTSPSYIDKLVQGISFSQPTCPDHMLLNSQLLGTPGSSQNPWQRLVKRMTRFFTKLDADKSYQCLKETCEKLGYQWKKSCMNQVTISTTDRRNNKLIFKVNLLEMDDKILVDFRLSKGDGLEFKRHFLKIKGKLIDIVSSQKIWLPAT
Description: FIG. 6 illustrates inhibition of Chk1 kinase activity by NSC 109555 using an in vitro kinase assay. Top bands indicate the level of Chk1 autophosphorylation, bottom bands indicate the level of histone H1 phosphorylation.
(§1) Following on from the data obtained from high-throughput screening, another assay is employed to measure Chk2 kinase activity. This assay is based on using γ^32P-labeled ATP to mediate phosphorylation of the target substrate and autophosphorylation of Chk2. Histone H1 or Cdc25C is used as test substrate. The reactions are performed at 30° C. for appropriate times, then the samples have 2×SDS loading buffer added to quench the reaction. The samples are boiled for about 5 minutes and then subjected to SDS-PAGE.
Staurosporine is used as a positive control to confirm Chk2 inhibition (See, FIG. 4). Following on from this, NSC 109555 is used in this assay and is depicted in FIG. 5. […].

Chk1 [2] = target: T1, Chk1; assay: Chk1 inhibitory activity of screening hits; details: FIG. 2
Chk2 [3] = target: T2, Chk2 (Homo sapiens, UniProt O96017); assay: IMAP Chk2 high-throughput screening assay (fluorescence polarization)
T2 sequence (O96017 whole entry): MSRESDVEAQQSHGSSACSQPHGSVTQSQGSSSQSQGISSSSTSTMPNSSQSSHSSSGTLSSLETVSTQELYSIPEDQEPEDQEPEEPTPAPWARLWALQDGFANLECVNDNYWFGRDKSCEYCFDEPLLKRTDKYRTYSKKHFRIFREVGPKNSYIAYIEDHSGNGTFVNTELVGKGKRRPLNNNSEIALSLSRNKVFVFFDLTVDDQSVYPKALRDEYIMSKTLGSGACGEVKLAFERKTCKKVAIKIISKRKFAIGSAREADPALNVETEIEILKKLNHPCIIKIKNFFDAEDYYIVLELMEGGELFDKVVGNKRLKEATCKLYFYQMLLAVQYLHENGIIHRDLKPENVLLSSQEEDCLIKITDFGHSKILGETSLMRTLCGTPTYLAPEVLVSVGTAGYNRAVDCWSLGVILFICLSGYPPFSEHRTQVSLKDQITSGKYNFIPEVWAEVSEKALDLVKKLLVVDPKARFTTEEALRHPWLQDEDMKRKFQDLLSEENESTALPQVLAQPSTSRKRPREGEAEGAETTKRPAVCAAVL

Chk2 [4] = target: T2, Chk2; assay: In vitro Chk2 kinase assay (γ32P-ATP, SDS-PAGE); details: with increasing concentration; 30° C.; FIGS. 4 and 5
Protocol: as §1

[5] = IMAP assay, fluorescein-labeled peptide substrate, read-out: EC50 (Chk2 inhibition)

| Structure (SMILES) | EC50 (Chk2 [3]; [5]) | also measured |
| --- | --- | --- |
| C/C(=N\NC(=N)N)c1ccc(NC(=O)Nc2ccc(/C(C)=N/NC(=N)N)cc2)cc1 [NSC 109555] | 0.051 µM | kinase activity of Chk1 (Chk1 [1]): did not appear to inhibit; inhibitory effect on Chk1 activity (Chk1 [2]): little or no inhibitory effect; Chk2 kinase activity (autophosphorylation and histone H1 phosphorylation) (Chk2 [4]): inhibited |
| CCN(CC)CCCNc1ccc2nc(C)n3c4ccc(O)cc4c(=O)c1c23 [Compound 8] | ~20 µM | – |
| C/C(=N\O)c1ccc2c(c1)C(=NO)c1ccccc1-2 [Compound 6] | 0.6 to 3.8 µM | – |
| O=[N+]([O-])c1ccc2c(c1)C(=NO)c1cc([N+](=O)[O-])ccc1-2 [Compound 7] | – | EC50 (Chk2 [3]): 0.8 to 4 µM |
| C/C(=N\O)c1ccc2c(c1)C(=NO)c1cc(/C(C)=N/O)ccc1-2 [Compound 5] | ~4 µM | – |
